Target: T1, ACMSD (Mus musculus, UniProt Q8R519)
T1 construct: endogenous in cells; host or cells: primary mouse hepatocytes (frozen, commercial)
Test: Quinolinic acid (QA) levels in primary mouse hepatocytes by LC-MS/MS, as indicator of ACMSD inhibition
Type: cell-based
Settings: 3 μM compound, six hours, 500 μM tryptophan, ratio of QA formed with compound versus wells with no compound (DMSO)
Protocol: Frozen primary mouse hepatocytes were thawed as per manufacturer's instructions and seeded at a density of 300,000 cells/well of a 6-well plate. After resting for a few hours, the cells were incubated with 3 μM of compound resuspended in DMSO in serum-free William's E media supplemented with 500 μM of tryptophan for six hours. After six hours, the cells were washed with phosphate buffer saline (PBS) and harvested in pre-cooled crashing solution (acetonitrile:methanol:water (40%:40%:20% w/w)) containing internal standard (telmisartan and/or verapamil). Ammonium bicarbonate (15%; 30 μL) was added to the lysates, incubated on dry ice for 10 min, centrifuged for 10 min at 14000 rpm and QA levels were quantified using optimized LC-MS/MS methods using an Atlantis, T3 3 μm, 150×4.6 mm column, and 0.1% formic acid in water and 0.2% formic acid in methanol as mobile phase A and B, respectively. The results are shown in Table 1 as a ratio of the amount of QA formed with compound versus the amount of QA in wells with no compound (DMSO). ACMSD is at the junction of the metabolic pathway of tryptophan. Increased QA levels or decreased PA levels would both be indicative of inhibition of ACMSD. When mouse hepatocytes are treated with the compounds of the invention, increased QA levels are observed and are therefore inhibitors of ACMSD.

T1 sequence (Q8R519 whole entry): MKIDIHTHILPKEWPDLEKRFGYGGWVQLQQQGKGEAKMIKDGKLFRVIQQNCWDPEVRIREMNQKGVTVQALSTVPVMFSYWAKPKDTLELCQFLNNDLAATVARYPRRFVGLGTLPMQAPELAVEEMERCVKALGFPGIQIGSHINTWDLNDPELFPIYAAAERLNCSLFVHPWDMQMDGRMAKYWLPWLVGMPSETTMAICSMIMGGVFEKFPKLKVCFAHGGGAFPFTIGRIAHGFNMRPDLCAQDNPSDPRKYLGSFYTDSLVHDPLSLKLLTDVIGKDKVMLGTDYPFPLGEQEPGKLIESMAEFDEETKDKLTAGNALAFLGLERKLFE

Row | Quinolinic acid ratio (Range) | SMILES
1 | ** (<4 to 6) | N#Cc1c(SCc2nnn[nH]2)[nH]c(=O)c(C(=O)N2CCCC2)c1-c1cccc(-c2ccccc2)c1 [Compound 126, 2-(((1H-tetrazol-5-yl)methyl)thio)-4-([1,1′-biphenyl]-3-yl)-6-oxo-5-(pyrrolidine-1-carbonyl)-1,6-dihydropyridine-3-carbonitrile]
2 | ** (<4 to 6) | N#Cc1c(SCc2nnn[nH]2)[nH]c(=O)c(Cl)c1-c1cccc(C(=O)Nc2ccccc2)c1 [Compound 123, 3-(6-(((1H-tetrazol-5-yl)methyl)thio)-3-chloro-5-cyano-2-oxo-1,2-dihydropyridin-4-yl)-N-phenylbenzamide]
3 | * (2 to 4) | N#Cc1c(-c2ccccc2)nc(=O)[nH]c1SCC(=O)O [Compound 131, 2-((5-cyano-2-oxo-6-phenyl-2,3-dihydropyrimidin-4-yl)thio)acetic acid]
4 | — (<2) | CC(C)Oc1nc(SCc2nnn[nH]2)[nH]c(=O)n1 [Compound 133, 6-(((1H-tetrazol-5-yl)methyl)thio)-4-isopropoxy-1,3,5-triazin-2(1H)-one]
5 | * (2 to 4) | O=C(O)c1cccc(CSc2nc(-c3ccccc3)nc(=O)[nH]2)c1 [Compound 128, 3-(((6-oxo-4-phenyl-1,6-dihydro-1,3,5-triazin-2-yl)thio)methyl)benzoic acid]
6 | ** (<4 to 6) | N#Cc1c(SCc2nnn[nH]2)[nH]c(=O)c(C(=O)Nc2ccccc2)c1-c1ccc(Cl)cc1 [Compound 124, 6-(((1H-tetrazol-5-yl)methyl)thio)-4-(4-chlorophenyl)-5-cyano-2-oxo-N-phenyl-1,2-dihydropyridine-3-carboxamide]
7 | ** (<4 to 6) | N#Cc1c(SCc2nnn[nH]2)[nH]c(=O)c(C(=O)N2CCCC2)c1-c1ccc(Cl)cc1 [Compound 125, 2-(((1H-tetrazol-5-yl)methyl)thio)-4-(4-chlorophenyl)-6-oxo-5-(pyrrolidine-1-carbonyl)-1,6-dihydropyridine-3-carbonitrile]
8 | * (2 to 4) | CNC(=O)c1c(-c2ccc(Cl)cc2)c(C#N)c(SCc2nnn[nH]2)[nH]c1=O [Compound 127, 6-(((1H-tetrazol-5-yl)methyl)thio)-4-(4-chlorophenyl)-5-cyano-N-methyl-2-oxo-1,2-dihydropyridine-3-carboxamide]

Source: US20260078105A1, “Novel Aminocarboxymuconate Semialdehyde Decarboxylase Inhibitors” (OrsoBio, Inc., priority 2023, published 2026)
